The text below walks through data of paper PMC3553074 (PLoS ONE, 2013).

Values after ≈ are worked out from the molar mass of the structure shown. Structures can show the parent of a compound that is named as a salt. Where two headings read alike, the source gives them in different places.

Test [1] addresses T1, Ft-MglA (Francisella tularensis, UniProt Q5NFG1). The experiment in a line: biochemical. To be noted: read-out: ΔTm (°C) ^1.
For another test, the system named is E. coli. As to the kind of experiment: microbe, parasite or virus in culture. To be noted: Escherichia coli, read-out: E. coli MIC (mM).
Test [2] deals with T2, Ec-SspA (Escherichia coli, UniProt P0ACA3).
T2 construct: His-tagged from pCA24N-sspA (ASKA library clone), expressed in E. coli
T2 sequence (P0ACA3 2-212): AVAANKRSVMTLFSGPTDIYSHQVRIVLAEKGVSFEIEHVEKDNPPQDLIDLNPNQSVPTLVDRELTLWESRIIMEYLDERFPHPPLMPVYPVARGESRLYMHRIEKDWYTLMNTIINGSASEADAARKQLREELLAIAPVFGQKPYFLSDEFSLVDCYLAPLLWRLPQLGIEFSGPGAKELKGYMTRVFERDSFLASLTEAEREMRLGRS
The experiment in a line: biochemical. Set-up: differential scanning fluorometry with SYPRO Orange, shift of midpoint transition temperature of purified protein.

Test [3] addresses T1, Ft-MglA. The experiment in a line: biochemical.
The target of test [4] is F. tularensis SCHU S4 SspA fused to the zinc finger DNA binding domain of murine Zif268 (pACTR-sspA-Zif) (F. tularensis SCHU S4). The experiment in a line: two-hybrid.
Test [5] concerns the target T2, Ec-SspA. The experiment in a line: biochemical.
The mark [6] stands for this setting: read-out: ΔTm (°C) ^1 / Ec-SspA.
[7] abbreviates: read-out: ΔTm (°C) ^1 / Ft-MglA.

Turning to `COC(=O)C1=CCCN(C)C1` [Arecoline hydrobromide], the ΔTm at 40 µM at Ft-MglA [1] was determined as 2.8 ± 0.1 °C. In the test on E. coli, the MIC came to 0.1 mM.
In the case of `O=C(O)c1cc2ccccc2c(Cc2c(O)c(C(=O)O)cc3ccccc23)c1O` [Pamoic acid], the MIC in the test with E. coli is 0.25 mM (≈ 97.1 µg/mL).
Take `Cc1c(Cl)cccc1Nc1ccccc1C(=O)O` [Tolfenamic acid]: the ΔTm at 40 µM on Ec-SspA [2] (read-out: ΔTm (°C) ^1) turned out to be 11.6 ± 2.7 °C. Also, the MIC with E. coli turned out to be 1 mM (≈ 262 µg/mL).
In the case of `CC1CCc2cc(F)cc3c(=O)c(C(=O)O)cn1c23` (centres unmarked) [Flumequine], the MIC in the test with E. coli worked out at 0.1 mM (≈ 26.1 µg/mL). For the same compound, the ΔTm at 40 µM on Ft-MglA [3] (read-out: ΔTm (°C) ^1) came out at 17.9 ± 2.4 °C.
Regarding `CCN(CC)C(=O)N1CCN(C)CC1` [Diethylcarbamazine citrate], the ΔTm at 40 µM at Ft-MglA [1] came out at 2.1 ± 0.1 °C. The MIC in the test on E. coli amounted to 1 mM.
Consider `C[C@H]1[C@H](C)CC[C@]2(C(=O)O)CC[C@]3(C)C(=CC[C@@H]4[C@@]5(C)CC[C@H](O)C(C)(C)[C@@H]5CC[C@]43C)[C@H]12` [Ursolic acid], for which the MIC in the test with E. coli turned out to be 1 mM (≈ 457 µg/mL). Further, on Ft-MglA [3] (read-out: ΔTm (°C) ^1), the ΔTm at 40 µM is 16.3 ± 3.2 °C.
With `O=C(CCCN1CCC(O)(c2ccc(Cl)cc2)CC1)c1ccc(F)cc1` [Haloperidol], the MIC in the test on E. coli is 0.1 mM (≈ 37.6 µg/mL).
In the case of `Cn1c(=O)c2nc[nH]c2n(C)c1=O` [Theophylline monohydrate], at Ft-MglA [1], the ΔTm at 40 µM worked out at 2.3 ± 0.1 °C. Besides, the MIC in the test on E. coli amounted to 0.1 mM.
In test [4], “F. tularensis SCHU S4 MglA fused to the ω subunit of E. coli RNA polymerase (pBR-mglA-ω) (natural protein)” displayed a decrease of β-galactosidase activity (%) with arecoline hydrobromide of 7.8%, a decrease of β-galactosidase activity (%) with benzbromarone of 5.8%, a decrease of β-galactosidase activity (%) with benzethonium chloride of 18.9% and a decrease of β-galactosidase activity (%) with captopril of 16.2%. In test [4], this compound came in with a decrease of β-galactosidase activity (%) with diethylcarbamazine citrate of 19.3%, a decrease of β-galactosidase activity (%) with dipyrone of 10.3%, a decrease of β-galactosidase activity (%) with flumequine of 12% and a decrease of β-galactosidase activity (%) with haloperidol of 18%. In addition, in test [4], the decrease of β-galactosidase activity (%) with meclofenamic acid was determined as 13.2%, the decrease of β-galactosidase activity (%) with nabumetone was 17.1%, the decrease of β-galactosidase activity (%) with pamoic acid is 15.5% and the decrease of β-galactosidase activity (%) with proparacaine hydrochloride was 9.8%. Also, in test [4], the decrease of β-galactosidase activity (%) with quinacrine dihydrochloride was found to be 61%, the decrease of β-galactosidase activity (%) with retinoic acid is 31%, the decrease of β-galactosidase activity (%) with theophylline monohydrate was 6.5% and the decrease of β-galactosidase activity (%) with tolfenamic acid was 7.7%. This compound also had a decrease of β-galactosidase activity (%) with ursolic acid in test [4] of 16.5%.
Regarding `CCN(CC)CCCC(C)Nc1c2ccc(Cl)cc2nc2ccc(OC)cc12` (centres unmarked) [quinacrine], the ΔTm at 40 µM on Ec-SspA [2] (setting [6]) was found to be 15.2 ± 1.7 °C; at Ft-MglA [3] (setting [7]), 2.1 ± 0.9 °C. Also, in the test on E. coli, the MIC was determined as 0.2 mM (≈ 80 µg/mL).
In the case of `CCCOc1ccc(C(=O)OCCN(CC)CC)cc1N` [Proparacaine hydrochloride], the ΔTm at 40 µM turned out to be 27.9 ± 4.3 °C at Ec-SspA [2] (setting [6]) and 24.5 ± 4.4 °C at Ft-MglA [3] (setting [7]). In addition, in the test with E. coli, the MIC is 0.5 mM.
`CC1=C(/C=C/C(C)=C/C=C/C(C)=C/C(=O)O)C(C)(C)CCC1` [Retinoic acid]: the MIC in the test with E. coli stood at 0.5 mM (≈ 150 µg/mL). Also, the ΔTm at 40 µM was 23.3 ± 3.2 °C at Ec-SspA [5] (setting [6]) and 24.5 ± 3.9 °C on Ft-MglA [3] (setting [7]).
As to `C[C@H](CS)C(=O)N1CCC[C@H]1C(=O)O` [Captopril], the ΔTm at 40 µM at Ec-SspA [2] (read-out: ΔTm (°C) ^1) stood at 9.2 ± 1.9 °C. In addition, the MIC in the test with E. coli worked out at 1 mM (≈ 217 µg/mL).
As to `CCc1oc2ccccc2c1C(=O)c1cc(Br)c(O)c(Br)c1` [Benzbromarone], in the test with E. coli, the MIC is 1 mM (≈ 424 µg/mL). For the same compound, the ΔTm at 40 µM at Ec-SspA [5] (read-out: ΔTm (°C) ^1) is 30 ± 1.6 °C.
Consider `COc1ccc2cc(CCC(C)=O)ccc2c1` [Nabumetone], for which the MIC in the test on E. coli was determined as 1 mM (≈ 228 µg/mL). The ΔTm at 40 µM at Ft-MglA [3] (read-out: ΔTm (°C) ^1) was 13.8 ± 0.1 °C.
Take `Cc1c(N(C)CS(=O)(=O)O)c(=O)n(-c2ccccc2)n1C` [Dipyrone]: on Ec-SspA [2] (read-out: ΔTm (°C) ^1), the ΔTm at 40 µM worked out at 8.9 ± 1.5 °C. The MIC in the test on E. coli stood at 1 mM (≈ 311 µg/mL).
On to `Cc1ccc(Cl)c(Nc2ccccc2C(=O)O)c1Cl` [Meclofenamic acid], for which the MIC in the test with E. coli amounted to 1 mM (≈ 296 µg/mL). The ΔTm at 40 µM at Ec-SspA [5] (read-out: ΔTm (°C) ^1) came out at 22.9 ± 4.1 °C.
